From US6680054B1 (priority 1996, dated 2004)

Columns and labels:
[1] = test system: NWS/G70C influenza A virus
[2] = test system: influenza strain G70C; type: cell-based

| Substance | amount of virus clearly detected [1] | compound concentration giving the best result [1] [µM] | detection signal at higher concentrations of compound [1] | detection signal at lower concentrations [1] | Lowest Concentration (μM of GG167 units) that Inhibited Agglutination, G70C [2] [µM] |
| --- | --- | --- | --- | --- | --- |
| GG167-Bovine Serum Albumin-Biotin conjugate [Compound 3a] | 10^6 pfu | 0.1 | the signal was weaker | the detection signal was also weaker |  |
| Fetuin |  |  |  |  | 0.73 |
